Where two headings read alike, the source gives them in different places.
Columns and labels:
Par-4 = experiment: PAR-4 activity, Western blot of cell supernatant and lysate; format: cell-based; conditions: normal mouse embryonic fibroblast cells, 25 μM, 18-21 h, cell supernatant, dose dependent
Experimental: Mouse embryonic fibroblast cells were harvested from exponential phase cultures. After a 24 h recovery period to allow the cells to resume exponential growth the cells were treated with 25 μM of ketorolac followed by further 18-21 h of incubation. Induction of Par-4 was checked in the cell supernatant and cell lysate by subjecting the samples to Western blot analysis with antibodies specific for Par-4. The samples were also subjected to SDS/PAGE and Coomassie blue staining to determine albumin levels in serum from the CM as another loading control.

[1] = system: 10 human tumor xenograft-derived cell suspensions or tumor cell lines of renal cancer; experiment: In vitro 3D assay, clonogenic assay, whole panel; format: cell-based; conditions: geometric mean of 10 renal tumor models, 3D colony formation
Experimental: Ketorolac was characterized for its ability to inhibit anchorage independent growth and ex vivo colony formation of tumor cells in semi-solid medium. The compound was tested against 10 human tumor xenograft-derived cell suspensions or tumor cell lines of renal cancer.
Cell lines were routinely passaged one or twice weekly. […] The percentage of viable cells was determined in a Neubauer-hemocytometer using trypan blue exclusion.
Tumor xenografts (patient-derived, as well as cell line-derived xenografts) were passaged as subcutaneous xenografts in NMRI nu/nu mice. At a tumor volume of 400-1000 mm^3 tumor-bearing mice were sacrificed and tumors were collected under sterile conditions without delay according to the relevant Oncotest SOPs and the relevant animal welfare guidelines published by the FELASA and the GV-SOLAS. […] The percentage of viable cells was determined in a Neubauer-hemocytometer using trypan blue exclusion. Aliquots of the cells were frozen down, and stored in liquid nitrogen. On each day of an experiment, a frozen aliquot of tumor cells was thawed and used for preparation of assay plates.
The clonogenic assay was carried out in a 96 well plate format using ultra low attachment plates. […] Every plate included six untreated control wells and drug-treated groups in duplicate at 9 concentrations. […] At the time of maximum colony formation, counts were performed with an automatic image analysis system (Celllnsight NXT, Thermo Scientific). 48 hours prior to evaluation, vital colonies were stained with a sterile aqueous solution of 2-(4-iodophenyl)-3-(4-nitrophenyl)-5-phenyltetrazolium chloride (1 mg/ml, 100 μl/well).

RXF 393L = experiment: In vitro 2D assay, CellTiter-Blue Cell Viability Assay; format: cell-based; conditions: Homo sapiens, 96 h treatment
Experimental: (§1) The objective of this study was to investigate the in-vitro anticancer activity of ketorolac. Antitumor activity was assessed in ten selected renal cancer cell lines by using the CellTiter-Blue Cell Viability Assay. The human renal cancer cell lines RXF 1183L, RXF 1220L, RXF 1781L, RXF 393L, RXF 486L, RXF 786-0, RXF A-498, RXF ACHN, RXF Caki-1 and RXF SN12C were used. RXF 1183L, RXF 1220L, RXF 1781L, RXF 393L and RXF 486L were established at Oncotest from the corresponding human patient-derived xenograft. The cell lines 786-0, A-498, Caki-1 and SN12C were purchased from NCI (National Cancer Institute, Bethesda, Md., USA). ACHN was purchased from ECACC (European Collection of Cell Cultures, Salisbury, UK). Authenticity of cell lines was confirmed at the DSMZ by STR (short tandem repeat) analysis, a PCR based DNA-fingerprinting methodology.
(§2) Cell lines were routinely passaged once or twice weekly and maintained in culture for up to 20 passages. All cells were grown at 37° C. in a humidified atmosphere with 5% CO2 in RPMI 1640 medium (25 mM HEPES, with L-glutamine, #FG1385, Biochrom, Berlin, Germany) supplemented with 10% (v/v) fetal calf serum (Sigma, Taufkirchen, Germany) and 0.1 mg/mL gentamicin (Life Technologies, Karlsruhe, Germany).
(§3) Ketorolac was dissolved at a concentration of 60 mM in cell culture media. Starting with this stock solution, dilutions were made using cell culture media resulting in final test concentrations of 12000, 7800, 6000, 4200, 3000, 1800, 600, 420, 180, 60 μM. Precipitation was not observed.
(§4) The CellTiter-Blue Cell Viability Assay was used according to manufacturer's instructions. Briefly, cells were harvested from exponential phase cultures, counted and plated in 96-well flat-bottom microtiter plates at a cell density of 4,000-12,000 cells/well depending on the cell line's growth rate. After a 24 h recovery period to allow the cells to resume exponential growth, ketorolac was applied at 8 to 10 concentrations in duplicate and treatment continued for 96 h. After 96 h treatment of cells, 20 μL/well CellTiter-Blue® reagent was added. Following an incubation period of up to four hours, fluorescence (FU) was measured by using the Enspire Multimode Plate Reader (excitation λ=531 nm, emission λ=615 nm).
(§5) For calculations, the mean values of duplicate/quadruplicate (untreated control) data were used. Sigmoidal concentration-response curves were fitted to the data points (T/C values) obtained for each cell line using 4 parameter non-linear curve fit.

RXF ACHN = experiment: as above; format: cell-based; conditions: Homo sapiens, 96 h treatment
Experimental: as §1, §2, §3, §4, §5

RXF A-498 = experiment: as above; format: cell-based; conditions: Homo sapiens, A498, A-498, 2D, 96 h treatment
Experimental: as §1, §2, §3, §4, §5

RXF 1781L = experiment: as above; format: cell-based; conditions: Homo sapiens, 96 h treatment
Experimental: as §1, §2, §3, §4, §5

RXF 786-0 = experiment: as above; format: cell-based; conditions: Homo sapiens, 786-O, 96 h treatment
Experimental: as §1, §2, §3, §4, §5

RXF 1220L = experiment: as above; format: cell-based; conditions: Homo sapiens, 96 h treatment
Experimental: as §1, §2, §3, §4, §5

RXF Caki-1 = experiment: as above; format: cell-based; conditions: Homo sapiens, Caki-1, 2D, 96 h treatment
Experimental: as §1, §2, §3, §4, §5

RXF SN12C = experiment: as above; format: cell-based; conditions: Homo sapiens, 96 h treatment
Experimental: as §1, §2, §3, §4, §5

RXF 486L = experiment: as above; format: cell-based; conditions: Homo sapiens, 96 h treatment
Experimental: as §1, §2, §3, §4, §5

RXF 1183L = experiment: as above; format: cell-based; conditions: Homo sapiens, 96 h treatment
Experimental: as §1, §2, §3, §4, §5

[2] = system: ten selected renal cancer cell lines; experiment: In vitro 2D assay, CellTiter-Blue Cell Viability Assay, whole panel; format: cell-based, human; conditions: for IC50: Homo sapiens, geometric mean of ten cell lines, 96 h treatment
Experimental: as §1, §2, §3
The CellTiter-Blue Cell Viability Assay was used according to manufacturer's instructions. Briefly, cells were harvested from exponential phase cultures, counted and plated in 96-well flat-bottom microtiter plates at a cell density of 4,000-12,000 cells/well depending on the cell line's growth rate. […] Following an incubation period of up to four hours, fluorescence (FU) was measured by using the Enspire Multimode Plate Reader (excitation λ=531 nm, emission λ=615 nm). […]

For `O=C(c1ccccc1)c1ccc2n1CCC2C(=O)O` (racemic) [Ketorolac, (±)-5-benzoyl-2,3-dihydro-1H-pyrrolizine-1-carboxylic acid], the “Induction of Par-4 secretion” value (Par-4) was “robust Par-4 secretion”, the IC50 ([1]; Homo sapiens, read-out: Absolute IC50, geometric mean) was 2.04 mM and the IC50 ([1]; Homo sapiens, read-out: Relative IC50, geometric mean (mean relative IC50)) was 2.04 mM. For the same compound, the IC50 ([1]; read-out: Relative IC50, geometric mean (mean relative IC50)) was 2.08 mM, the IC50 (RXF 393L; read-out: Absolute IC50) was 3.14 mM and the IC50 (RXF 393L; read-out: Relative IC50) was 3.75 mM. For the same compound, the IC50 (RXF ACHN; read-out: Absolute IC50) was 2.8 mM, the IC50 (RXF ACHN; read-out: Relative IC50) was 3.39 mM and the IC50 (RXF A-498; read-out: Absolute IC50) was 4.75 mM. It also gave an IC50 (RXF A-498; read-out: Relative IC50) of 5.65 mM, an IC50 (RXF 1781L; read-out: Absolute IC50) of 3.82 mM and an IC50 (RXF 1781L; read-out: Relative IC50) of 4.44 mM. For the same compound, the IC50 (RXF 786-0; read-out: Absolute IC50) was 3.25 mM, the IC50 (RXF 786-0; read-out: Relative IC50) was 3.85 mM and the IC50 (RXF 1220L; read-out: Absolute IC50) was 4.77 mM. The IC50 (RXF 1220L; read-out: Relative IC50) was 5.36 mM, the IC50 (RXF Caki-1; read-out: Absolute IC50) was 2.79 mM and the IC50 (RXF Caki-1; read-out: Relative IC50) was 3.44 mM. It also gave an IC50 (RXF SN12C; read-out: Absolute IC50) of 2.44 mM, an IC50 (RXF SN12C; read-out: Relative IC50) of 2.82 mM and an IC50 (RXF 486L; read-out: Absolute IC50) of 3.15 mM. It also gave an IC50 (RXF 486L; read-out: Relative IC50) of 3.29 mM, an IC50 (RXF 1183L; read-out: Absolute IC50) of 2.4 mM and an IC50 (RXF 1183L; read-out: Relative IC50) of 2.67 mM. For the same compound, the IC50 ([2]; read-out: Absolute IC50, geometric mean) was 3.24 mM, the IC50 ([2]; read-out: Relative IC50, geometric mean) was 3.76 mM and the “Activity in all cell lines tested (concentration-effect curves)” value ([2]; both runs, all cell lines tested) was “Concentration-dependent activity”.

Reference: patent US10391080B2, “Ketorolac for the treatment of cancer” (Cipla Limited, priority 2016, dated 2019)
